Results published in the supplement of paper PMC11451515.

System: P12-Ichikawa
Assay: cell viability relative to DMSO control; higher = less cytotoxic
Conditions: 48 h
Method in brief: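 Viability is expressed as a percentage of DMSO wells within each plate, and cell-free wells serve as background. Seeding densities in the 1536-well plates (5 μl) were 500 cells/well for NOMO1 or SEM leukemia cells and 1000 cells/well for P12-Ichikawa. Each line was adapted for at least four passages in each medium. Library compounds in DMSO were pin-dosed at 47 μM to 0.79 nM (11 points, threefold), and CellTiter-Glo One luminescence was read after 48 h at 37°C.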

[1] = HPLM + 10% dialyzed FBS, 0.000781 µM
[2] = HPLM + 10% dialyzed FBS, 0.00234 µM
[3] = HPLM + 10% dialyzed FBS, 0.00702 µM
[4] = HPLM + 10% dialyzed FBS, 0.0211 µM
[5] = HPLM + 10% dialyzed FBS, 0.0632 µM
[6] = HPLM + 10% dialyzed FBS, 0.19 µM
[7] = HPLM + 10% dialyzed FBS, 0.569 µM
[8] = HPLM + 10% dialyzed FBS, 1.71 µM
[9] = HPLM + 10% dialyzed FBS, 5.12 µM
[10] = HPLM + 10% dialyzed FBS, 15.4 µM
[11] = HPLM + 10% dialyzed FBS, 46.1 µM
[12] = RPMI 5 mM glucose + 10% FBS, 0.000781 µM
[13] = RPMI 5 mM glucose + 10% FBS, 0.00234 µM
[14] = RPMI 5 mM glucose + 10% FBS, 0.00702 µM
[15] = RPMI 5 mM glucose + 10% FBS, 0.0211 µM
[16] = RPMI 5 mM glucose + 10% FBS, 0.0632 µM
[17] = RPMI 5 mM glucose + 10% FBS, 0.19 µM
[18] = RPMI 5 mM glucose + 10% FBS, 0.569 µM
[19] = RPMI 5 mM glucose + 10% FBS, 1.71 µM
[20] = RPMI 5 mM glucose + 10% FBS, 5.12 µM
[21] = RPMI 5 mM glucose + 10% FBS, 15.4 µM
[22] = RPMI 5 mM glucose + 10% FBS, 46.1 µM
[23] = RPMI 5 mM glucose + 10% dialyzed FBS, 0.000781 µM
[24] = RPMI 5 mM glucose + 10% dialyzed FBS, 0.00234 µM
[25] = RPMI 5 mM glucose + 10% dialyzed FBS, 0.00702 µM
[26] = RPMI 5 mM glucose + 10% dialyzed FBS, 0.0211 µM
[27] = RPMI 5 mM glucose + 10% dialyzed FBS, 0.0632 µM
[28] = RPMI 5 mM glucose + 10% dialyzed FBS, 0.19 µM
[29] = RPMI 5 mM glucose + 10% dialyzed FBS, 0.569 µM
[30] = RPMI 5 mM glucose + 10% dialyzed FBS, 1.71 µM
[31] = RPMI 5 mM glucose + 10% dialyzed FBS, 5.12 µM
[32] = RPMI 5 mM glucose + 10% dialyzed FBS, 15.4 µM
[33] = RPMI 5 mM glucose + 10% dialyzed FBS, 46.1 µM

Compound	cell viability [1] [%]	cell viability [2] [%]	cell viability [3] [%]	cell viability [4] [%]	cell viability [5] [%]	cell viability [6] [%]	cell viability [7] [%]	cell viability [8] [%]	cell viability [9] [%]	cell viability [10] [%]	cell viability [11] [%]	cell viability [12] [%]	cell viability [13] [%]	cell viability [14] [%]	cell viability [15] [%]	cell viability [16] [%]	cell viability [17] [%]	cell viability [18] [%]	cell viability [19] [%]	cell viability [20] [%]	cell viability [21] [%]	cell viability [22] [%]	cell viability [23] [%]	cell viability [24] [%]	cell viability [25] [%]	cell viability [26] [%]	cell viability [27] [%]	cell viability [28] [%]	cell viability [29] [%]	cell viability [30] [%]	cell viability [31] [%]	cell viability [32] [%]	cell viability [33] [%]
OC[C@H]1O[C@H](C[C@@H]1O)N2/C=C(C(=O)NC2=O)/C(F)(F)F	120	116	119	110	117	98	75.9	52.9	17.4	12.5	6.49	126	113	118	114	123	121	112	107	38.6	15.7	8.41	107	114	114	113	105	107	89.6	93.3	23.1	16.8	11.1
O=C(O)c1cc(O)c2c(c1)C(=O)c1cccc(O)c1C2=O	113	117	123	117	107	117	112	110	107	106	99.9	110	120	113	119	119	113	109	120	98	113	102	118	119	113	114	112	112	110	108	99.1	108	99.7
CC[C@H]1OC(=O)[C@H](C)[C@@H](O[C@H]2C[C@@](C)(OC)[C@@H](O)[C@H](C)O2)[C@H](C)[C@@H](O[C@@H]2O[C@H](C)C[C@H](N(C)C)[C@H]2O)[C@](C)(OC)C[C@@H](C)C(=O)[C@H](C)[C@@H](O)[C@]1(C)O	109	102	98	98.7	103	96.7	95.8	93.2	91.6	93.5	82.1	94.3	103	98.6	88.4	96.3	98.5	90.8	89.8	86	84.2	89.6	93.2	98.5	96.3	88	94.8	94.3	90.5	85.6	90.8	94.2	81.2
COc1cc(C(=O)NC2CCN(C)CC2)ccc1Nc1ncc2c(n1)N(C1CCCC1)CCC(=O)N2C(C)C	104	102	103	110	109	110	85	109	79.2	26.3	4.5	107	103	95.1	112	108	116	89.6	114	73.4	42.7	5.67	98.1	104	111	110	111	106	92.3	107	71.2	54.1	6
OC(=O)\C1=C\N(C2CC2)C3=CC(=C(F)C=C3C1=O)N4CCNCC4	110	114	114	111	112	112	115	113	96.6	91.9	68.7	102	104	115	108	112	113	115	100	104	92.3	63.9	99.4	106	113	111	112	108	113	114	99.4	90.5	64.7
CC(C)(N)C(=O)N[C@H](COCc1ccccc1)C(=O)N1CCC2(CC1)CN([S+](C)(=O)[O-])c1ccccc12	–	–	–	–	–	–	–	–	–	–	–	–	–	–	–	–	–	–	–	–	–	–	124	122	141	126	125	124	123	114	109	91.8	20.3
CCC(CCCC)COC(=O)C(\C#N)=C(\c1ccccc1)c2ccccc2 (stereo not given)	95.6	100	102	99.3	106	108	112	107	113	107	99.3	89.8	95.7	95.2	96.3	110	104	106	99.2	95.2	102	94.5	87.1	84.2	97.6	98.5	98.8	97.2	101	99.5	97.3	99.1	95.9
COc1c(Cl)cc2c([nH]c3cnccc32)c1NC(=O)c1cccnc1C	103	99.3	102	106	107	109	99	99.1	94.9	94.7	93.1	107	105	107	108	112	108	96.1	105	110	105	96.9	102	110	104	96.9	106	106	97.7	94.1	95.4	95.6	82.8
CCOC(=O)c1c(C)n(C)c2ccc(O)cc12	122	124	124	123	128	122	127	123	107	109	90.3	–	–	–	–	–	–	–	–	–	–	–	–	–	–	–	–	–	–	–	–	–	–
CCCCCCNC(=O)N1\C=C(F)/C(=O)NC1=O	122	124	123	127	121	129	126	124	113	107	89.3	–	–	–	–	–	–	–	–	–	–	–	108	118	122	122	127	117	129	121	116	91.8	81.8
Nc1n[nH]c2nnc(-c3c(-c4ccccc4)nn4ccccc34)cc12	104	117	112	120	126	126	120	118	90	18.8	10.6	109	116	123	118	134	119	141	138	95.3	17.7	9.91	113	116	128	121	133	134	136	131	132	53.6	17.9
Cc1c(N)nc([C@H](CC(N)=O)NC[C@@H](N)C(N)=O)nc1C(=O)N[C@H](C(=O)N[C@@H](C)[C@H](O)[C@@H](C)C(=O)N[C@@H](C(=O)NCCc1nc(-c2nc(C(=O)NCCC[S+](C)C)cs2)cs1)[C@@H](C)O)C(O[C@H]1O[C@H](CO)[C@H](O)[C@@H](O)[C@H]1O[C@H]1O[C@H](CO)[C@@H](O)[C@H](OC(N)=O)[C@@H]1O)c1c[nH]cn1 (stereo not given in full)	112	114	108	108	111	120	110	96.6	78	28.3	40.9	103	102	112	114	104	109	105	67.3	51.5	21.4	37	102	103	108	103	105	109	107	91.6	82.1	37.2	44.6
Cc1nc(-c2ccc(OCC(C)C)c(C#N)c2)sc1C(=O)O	114	124	122	117	119	117	112	116	119	106	92.7	–	–	–	–	–	–	–	–	–	–	–	–	–	–	–	–	–	–	–	–	–	–
Cc1ccc([C@@H]2O[C@H](CO)[C@@H](O)[C@H](O)[C@H]2O)cc1Cc1ccc(-c2ccc(F)cc2)s1	119	112	119	116	126	127	126	127	127	125	90.3	118	121	135	130	129	132	128	126	131	125	77.7	114	117	118	121	132	132	134	131	118	120	69.9
